The NIST ThermoML archive (doi:10.1021/je800754w)
± gives the expanded uncertainty stated by the source.

Assay: activity coefficient (dimensionless); of the first substance listed, at infinite dilution; xn = mol fraction of the nth substance listed
Conditions: Liquid, Chromatography, x1 = 0

SMILES	activity coefficient (302.45 K)	activity coefficient (322.35 K)	activity coefficient (342.45 K)
CCCC=O [butanal] + CCCCCCCCCCCCCC[P+](CCCCCC)(CCCCCC)CCCCCC.O=S(=O)([N-]S(=O)(=O)C(F)(F)F)C(F)(F)F	0.38 ± 0.03	0.36 ± 0.03	0.35 ± 0.03
C1CCCCCC1 [cycloheptane] + CCCCCCCCCCCCCC[P+](CCCCCC)(CCCCCC)CCCCCC.O=S(=O)([N-]S(=O)(=O)C(F)(F)F)C(F)(F)F	0.83 ± 0.05	1.81 ± 0.12	3.59 ± 0.24
CCCCCCCC [octane] + CCCCCCCCCCCCCC[P+](CCCCCC)(CCCCCC)CCCCCC.O=S(=O)([N-]S(=O)(=O)C(F)(F)F)C(F)(F)F	1.48 ± 0.1	1.42 ± 0.09	1.4 ± 0.1
CCCO [propan-1-ol] + CCCCCCCCCCCCCC[P+](CCCCCC)(CCCCCC)CCCCCC.O=S(=O)([N-]S(=O)(=O)C(F)(F)F)C(F)(F)F	1.53 ± 0.1	1.21 ± 0.08	1 ± 0.06
CCCC(C)=O [pentan-2-one] + CCCCCCCCCCCCCC[P+](CCCCCC)(CCCCCC)CCCCCC.O=S(=O)([N-]S(=O)(=O)C(F)(F)F)C(F)(F)F	0.31 ± 0.03	0.32 ± 0.03	0.33 ± 0.03
CO [methanol] + CCCCCCCCCCCCCC[P+](CCCCCC)(CCCCCC)CCCCCC.O=S(=O)([N-]S(=O)(=O)C(F)(F)F)C(F)(F)F	1.29 ± 0.08	0.98 ± 0.06	0.86 ± 0.06
ClC(Cl)(Cl)Cl [tetrachloromethane] + CCCCCCCCCCCCCC[P+](CCCCCC)(CCCCCC)CCCCCC.O=S(=O)([N-]S(=O)(=O)C(F)(F)F)C(F)(F)F	0.55 ± 0.04	0.55 ± 0.04	0.55 ± 0.04
C#CCCCC [1-hexyne] + CCCCCCCCCCCCCC[P+](CCCCCC)(CCCCCC)CCCCCC.O=S(=O)([N-]S(=O)(=O)C(F)(F)F)C(F)(F)F	0.7 ± 0.1	0.69 ± 0.05	0.67 ± 0.05
CCC(C)=O [butanone] + CCCCCCCCCCCCCC[P+](CCCCCC)(CCCCCC)CCCCCC.O=S(=O)([N-]S(=O)(=O)C(F)(F)F)C(F)(F)F	0.28 ± 0.03	0.27 ± 0.03	0.23 ± 0.03
ClC(Cl)Cl [trichloromethane] + CCCCCCCCCCCCCC[P+](CCCCCC)(CCCCCC)CCCCCC.O=S(=O)([N-]S(=O)(=O)C(F)(F)F)C(F)(F)F	0.29 ± 0.03	0.31 ± 0.03	0.32 ± 0.03
CC#N [acetonitrile] + CCCCCCCCCCCCCC[P+](CCCCCC)(CCCCCC)CCCCCC.O=S(=O)([N-]S(=O)(=O)C(F)(F)F)C(F)(F)F	0.56 ± 0.04	0.5 ± 0.04	0.46 ± 0.04
CC(C)CO [2-methyl-1-propanol] + CCCCCCCCCCCCCC[P+](CCCCCC)(CCCCCC)CCCCCC.O=S(=O)([N-]S(=O)(=O)C(F)(F)F)C(F)(F)F	1.49 ± 0.1	1.15 ± 0.07	0.95 ± 0.06
CCCCCCCCCC [decane] + CCCCCCCCCCCCCC[P+](CCCCCC)(CCCCCC)CCCCCC.O=S(=O)([N-]S(=O)(=O)C(F)(F)F)C(F)(F)F	1.97 ± 0.13	1.89 ± 0.13	1.84 ± 0.12
C=CCCCC [hex-1-ene] + CCCCCCCCCCCCCC[P+](CCCCCC)(CCCCCC)CCCCCC.O=S(=O)([N-]S(=O)(=O)C(F)(F)F)C(F)(F)F	0.91 ± 0.06	0.87 ± 0.06	0.85 ± 0.05
ClCCl [dichloromethane] + CCCCCCCCCCCCCC[P+](CCCCCC)(CCCCCC)CCCCCC.O=S(=O)([N-]S(=O)(=O)C(F)(F)F)C(F)(F)F	0.23 ± 0.03	0.25 ± 0.03	0.27 ± 0.03
CCOCC [diethyl ether] + CCCCCCCCCCCCCC[P+](CCCCCC)(CCCCCC)CCCCCC.O=S(=O)([N-]S(=O)(=O)C(F)(F)F)C(F)(F)F	0.62 ± 0.04	0.59 ± 0.04	0.57 ± 0.04
CC(C)OC(C)C [diisopropyl ether] + CCCCCCCCCCCCCC[P+](CCCCCC)(CCCCCC)CCCCCC.O=S(=O)([N-]S(=O)(=O)C(F)(F)F)C(F)(F)F	0.93 ± 0.06	0.9 ± 0.06	0.87 ± 0.06
CCCCCCCCCCC [undecane] + CCCCCCCCCCCCCC[P+](CCCCCC)(CCCCCC)CCCCCC.O=S(=O)([N-]S(=O)(=O)C(F)(F)F)C(F)(F)F	2.32 ± 0.16	2.18 ± 0.15	2.1 ± 0.2
C#CCCCCC [1-heptyne] + CCCCCCCCCCCCCC[P+](CCCCCC)(CCCCCC)CCCCCC.O=S(=O)([N-]S(=O)(=O)C(F)(F)F)C(F)(F)F	0.77 ± 0.05	0.78 ± 0.05	0.8 ± 0.05
C1COCCO1 [1,4-dioxane] + CCCCCCCCCCCCCC[P+](CCCCCC)(CCCCCC)CCCCCC.O=S(=O)([N-]S(=O)(=O)C(F)(F)F)C(F)(F)F	0.51 ± 0.04	0.49 ± 0.04	0.48 ± 0.04

SMILES	activity coefficient (302.45 K)	activity coefficient (322.35 K)	activity coefficient (342.45 K)
C1CCCCC1 [cyclohexane] + CCCCCCCCCCCCCC[P+](CCCCCC)(CCCCCC)CCCCCC.O=S(=O)([N-]S(=O)(=O)C(F)(F)F)C(F)(F)F	0.83 ± 0.05	0.78 ± 0.05	0.75 ± 0.05
CCC[N+](=O)[O-] [1-nitropropane] + CCCCCCCCCCCCCC[P+](CCCCCC)(CCCCCC)CCCCCC.O=S(=O)([N-]S(=O)(=O)C(F)(F)F)C(F)(F)F	2.19 ± 0.15	1.62 ± 0.11	1.35 ± 0.09
CCC=O [propanal] + CCCCCCCCCCCCCC[P+](CCCCCC)(CCCCCC)CCCCCC.O=S(=O)([N-]S(=O)(=O)C(F)(F)F)C(F)(F)F	0.35 ± 0.03	0.33 ± 0.03	0.31 ± 0.03
CCCCCCC [heptane] + CCCCCCCCCCCCCC[P+](CCCCCC)(CCCCCC)CCCCCC.O=S(=O)([N-]S(=O)(=O)C(F)(F)F)C(F)(F)F	1.27 ± 0.08	1.22 ± 0.08	1.19 ± 0.08
CCC(C)CC [3-methylpentane] + CCCCCCCCCCCCCC[P+](CCCCCC)(CCCCCC)CCCCCC.O=S(=O)([N-]S(=O)(=O)C(F)(F)F)C(F)(F)F	1.04 ± 0.07	0.98 ± 0.06	0.94 ± 0.06
C[N+](=O)[O-] [nitromethane] + CCCCCCCCCCCCCC[P+](CCCCCC)(CCCCCC)CCCCCC.O=S(=O)([N-]S(=O)(=O)C(F)(F)F)C(F)(F)F	0.77 ± 0.05	0.64 ± 0.04	0.58 ± 0.04
c1ccncc1 [pyridine] + CCCCCCCCCCCCCC[P+](CCCCCC)(CCCCCC)CCCCCC.O=S(=O)([N-]S(=O)(=O)C(F)(F)F)C(F)(F)F	0.52 ± 0.04	0.41 ± 0.03	0.34 ± 0.03
CC1CCCCC1 [methylcyclohexane] + CCCCCCCCCCCCCC[P+](CCCCCC)(CCCCCC)CCCCCC.O=S(=O)([N-]S(=O)(=O)C(F)(F)F)C(F)(F)F	0.92 ± 0.06	0.89 ± 0.06	0.86 ± 0.06
Cc1ccccc1 [toluene] + CCCCCCCCCCCCCC[P+](CCCCCC)(CCCCCC)CCCCCC.O=S(=O)([N-]S(=O)(=O)C(F)(F)F)C(F)(F)F	0.46 ± 0.04	0.46 ± 0.04	0.47 ± 0.04
C=O [methanal] + CCCCCCCCCCCCCC[P+](CCCCCC)(CCCCCC)CCCCCC.O=S(=O)([N-]S(=O)(=O)C(F)(F)F)C(F)(F)F	0.06	0.06	0.07 ± 0.03
CCO [ethanol] + CCCCCCCCCCCCCC[P+](CCCCCC)(CCCCCC)CCCCCC.O=S(=O)([N-]S(=O)(=O)C(F)(F)F)C(F)(F)F	1.56 ± 0.1	1.23 ± 0.08	1.01 ± 0.06
c1ccsc1 [thiophene] + CCCCCCCCCCCCCC[P+](CCCCCC)(CCCCCC)CCCCCC.O=S(=O)([N-]S(=O)(=O)C(F)(F)F)C(F)(F)F	0.42 ± 0.04	0.4 ± 0.03	0.38 ± 0.03
CCCCCC [hexane] + CCCCCCCCCCCCCC[P+](CCCCCC)(CCCCCC)CCCCCC.O=S(=O)([N-]S(=O)(=O)C(F)(F)F)C(F)(F)F	1.09 ± 0.07	1.04 ± 0.07	1.01 ± 0.06
CC1CCCC1 [methylcyclopentane] + CCCCCCCCCCCCCC[P+](CCCCCC)(CCCCCC)CCCCCC.O=S(=O)([N-]S(=O)(=O)C(F)(F)F)C(F)(F)F	0.85 ± 0.05	0.8 ± 0.1	0.77 ± 0.05
CC(C)O [propan-2-ol] + CCCCCCCCCCCCCC[P+](CCCCCC)(CCCCCC)CCCCCC.O=S(=O)([N-]S(=O)(=O)C(F)(F)F)C(F)(F)F		1.22 ± 0.08	0.99 ± 0.06
CCc1ccccc1 [ethylbenzene] + CCCCCCCCCCCCCC[P+](CCCCCC)(CCCCCC)CCCCCC.O=S(=O)([N-]S(=O)(=O)C(F)(F)F)C(F)(F)F	0.54 ± 0.04	0.57 ± 0.04	0.59 ± 0.04
CCCCO [butan-1-ol] + CCCCCCCCCCCCCC[P+](CCCCCC)(CCCCCC)CCCCCC.O=S(=O)([N-]S(=O)(=O)C(F)(F)F)C(F)(F)F	1.62 ± 0.11	1.26 ± 0.08	1.04 ± 0.07
CCCCCCCCC [nonane] + CCCCCCCCCCCCCC[P+](CCCCCC)(CCCCCC)CCCCCC.O=S(=O)([N-]S(=O)(=O)C(F)(F)F)C(F)(F)F	1.87 ± 0.13	1.8 ± 0.1	1.74 ± 0.12
c1ccccc1 [benzene] + CCCCCCCCCCCCCC[P+](CCCCCC)(CCCCCC)CCCCCC.O=S(=O)([N-]S(=O)(=O)C(F)(F)F)C(F)(F)F	0.39 ± 0.03	0.39 ± 0.03	0.39 ± 0.03
